Source: US7888329B2, “Substituted aryl piperidinylalkynyladenosines as A2AR agonists” (PGxHealth, LLC, priority 2006, dated 2011)

Legend:
human A1 AR = target: T1, human A1 AR (Homo sapiens, UniProt P30542); assay: Radioligand competition binding with 125I-ABA, membranes of CHO K1 cells stably expressing the receptor; settings: Ki derived from IC50, class symbols
T1 construct: expressed in transfected cells; membranes
T1 sequence (P30542 1-326): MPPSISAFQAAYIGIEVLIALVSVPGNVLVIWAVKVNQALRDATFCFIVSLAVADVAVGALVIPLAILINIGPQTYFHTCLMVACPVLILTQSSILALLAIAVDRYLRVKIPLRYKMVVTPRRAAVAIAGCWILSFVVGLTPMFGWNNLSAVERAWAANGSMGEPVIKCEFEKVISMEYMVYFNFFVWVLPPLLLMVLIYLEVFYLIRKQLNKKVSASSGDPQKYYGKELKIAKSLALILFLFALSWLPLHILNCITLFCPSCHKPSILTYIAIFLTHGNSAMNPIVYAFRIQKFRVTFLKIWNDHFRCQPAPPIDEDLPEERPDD

[1] = target: T2, recombinant human A2A receptors (Homo sapiens, UniProt P29274); assay: Radioligand competition binding with 125I-APE or 125I-ZM241385, Sf9 cell membranes; settings: 125I-APE or 125I-ZM241385, Sf9 membranes; class symbols
T2 construct: expressed in transfected cells; host or cells: Sf9 insect cells infected with virus; membranes
T2 sequence (P29274 whole entry): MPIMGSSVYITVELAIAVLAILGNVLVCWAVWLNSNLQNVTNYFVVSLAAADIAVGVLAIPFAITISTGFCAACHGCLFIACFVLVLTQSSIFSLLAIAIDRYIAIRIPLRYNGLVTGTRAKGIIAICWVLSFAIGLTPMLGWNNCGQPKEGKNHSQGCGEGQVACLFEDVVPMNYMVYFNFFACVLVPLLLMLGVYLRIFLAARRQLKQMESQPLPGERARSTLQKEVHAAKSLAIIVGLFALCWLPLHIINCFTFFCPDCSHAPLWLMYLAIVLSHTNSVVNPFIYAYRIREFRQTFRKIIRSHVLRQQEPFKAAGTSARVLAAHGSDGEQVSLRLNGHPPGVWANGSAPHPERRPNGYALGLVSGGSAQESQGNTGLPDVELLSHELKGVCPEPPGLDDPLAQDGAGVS
Summary of the method: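 Membranes (5 μg for A2A; 25 μg for A1) incubated with radioligand at room temperature, 3 h for agonists or 2 h for antagonists, in HE buffer with 1 U/mL adenosine deaminase and 5 mM MgCl2, ± 50 μM GTPγS. Assays ended by filtration; nonspecific binding defined with 50 μM NECA.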

[2] = test system: Purified human neutrophils; assay: Luminol enhanced chemiluminescence (neutrophil oxidative activity), fMLP stimulated; assay type: cell-based; settings: Homo sapiens, Neutrophil; read-out: Functional
human A3 AR = target: T3, human A3 AR (Homo sapiens, UniProt P0DMS8); assay: Radioligand competition binding with 125I-ABA, membranes of HEK 293 cells stably expressing the receptor; settings: Ki derived from IC50, class symbols
T3 construct: expressed in transfected cells; membranes
T3 sequence (P0DMS8 1-318): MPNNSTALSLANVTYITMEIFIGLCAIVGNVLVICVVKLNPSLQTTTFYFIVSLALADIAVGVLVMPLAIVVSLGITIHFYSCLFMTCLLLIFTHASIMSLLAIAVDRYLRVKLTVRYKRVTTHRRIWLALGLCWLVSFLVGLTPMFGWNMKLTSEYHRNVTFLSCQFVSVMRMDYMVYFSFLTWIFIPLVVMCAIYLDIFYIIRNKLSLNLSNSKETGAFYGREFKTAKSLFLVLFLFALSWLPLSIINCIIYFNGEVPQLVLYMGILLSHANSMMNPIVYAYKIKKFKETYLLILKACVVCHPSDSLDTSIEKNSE
Summary of the method: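 Triplicate binding with 25 μg membrane protein and 0.5-1 nM agonist radioligand in HE buffer with 1 U/mL adenosine deaminase and 5 mM MgCl2, ±50 μM GTPγS, 3 h at room temperature, then filtration. Nonspecific binding with 50 μM NECA; Ki from IC50 corrected for radioligand and competitor depletion.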

CCNC(=O)[C@H]1O[C@@H](n2cnc3c(N)nc(C#CCC4CCN(C(=O)Oc5ccccc5Cl)CC4)nc32)[C@@H](O)C1O (stereo partly shown) [Compound 31, N-Ethyl 2-{3-[1-(2-chlorophenyloxycarbonyl)-4-piperidinyl]-1-propyn-1-yl}adenosine-5′-uronamide]
Ki (human A1 AR): < 100 nM | Ki [1]: < 1 nM | EC50 [2]: < 10 nM | Ki (human A3 AR): < 10 nM
